Here are results for one compound from US9464064B2, “HCV helicase inhibitors and methods of use thereof” (University of Kansas, priority 2011, dated 2016).

Each structure is given as a SMILES string. A value given as a limit tells only on which side of the number the result lay.

A short description of data set [1]: Parallel Artificial Membrane Permeability Assay (PAMPA). Format: in vitro ADME. The note with it: acceptor pH 7.4. The method, then: Permeability was assessed using the Parallel Artificial Membrane Permeability Assay (PAMPA) in a 96-well format. All liquid dispensed and transfer steps were performed with the FREEDOM EVO automated liquid handler (Tecan US). Measurements were performed in an aqueous buffer solution (PRISMA HT, pION Inc.) at pH 5.0, 6.2, and 7.4, in duplicate. A “sandwich” plate (pION Inc.) composed of a donor bottom plate and an acceptor filter plate was used. The donor wells contained the compounds in 180 μl system solution, and magnetic stir bars. The filter on the bottom of each acceptor well was coated with GIT-0 lipid (pION Inc.) and filled with 200 μl of Acceptor Sink Buffer, pH 7.4 (pION Inc.) containing a surfactant to mimic the function of serum proteins. The permeation time was 30 minutes and moderate stirring (equivalent to 40 μm Aqueous Boundary Layer thickness) was applied using the GUT-BOX (pION, Inc.). After the permeation time, the sandwich was disassembled and the amount of compound present in both the donor and acceptor wells was measured by UV absorbance (250-498 nm) using the Infinite M200 (Tecan US) and compared to spectra obtained from reference standards. Mass balance was used to determine the amount of material embedded in the membrane filter. The effective permeability, Pe, was calculated using the software PAMPA Evolution Plus, version 3.2 (pION Inc). Verapamil HCl (considered highly permeable), Metoprolol (considered moderately permeable), and Ranitidine (considered poorly permeable) were used as reference standards. Permeation time was 30 minutes. Final DMSO concentration was 0.5% and standards and test compounds were assayed at 100 μM.

Another data set is described as follows: Plasma stability, human. The format is in vitro ADME. The following applies: percent remaining at 3 hours. The method, then:
Stability of compounds in human plasma (BioChemed Services) and mouse plasma (BioChemed Services) were determined. All liquid was dispensed and transfer steps were performed with the FREEDOM EVO automated liquid handler (Tecan US). Plasma was allowed to thaw at room temperature prior to preparing the assay solution of plasma:1×PBS (1:1). The assay solution was warmed up at 37° C. prior of adding the compound. Immediately after compounds were added, time 0 minute aliquots were promptly collected and mixed with cold acetonitrile (spiked with an internal standard). The remainder of the reaction volume was incubated at 37° C. with shaking. Additional aliquots were collected 180 minutes after the start of the reaction and promptly quenched with cold acetonitrile (spiked with an internal standard). Samples were centrifuged at 3000 rpm for 10 minutes. The amount of compound in the supernatant was determined by LC/MS/MS (Applied Biosystems, Sciex API4000 Q-TRAP) and the percent of parent compound remaining after 180 minutes was calculated by the following formula: % parent compound remaining=[(concentration at 180 minutes/concentration at 0 minutes)×100]. Results reported are the mean of each reaction duplicate, normalized to the internal standard, and expressed as a percent of compound remaining after the incubation time. […]

Data set [2] in a line: Hepatic microsome stability, mouse. The format is in vitro ADME. The following applies: percent remaining at 1 hour. The method, then:
Metabolic stability was assessed in the presence of human liver microsomes (XenoTech) and mouse liver mirosomes (XenoTech). All liquid was dispensed and transfer steps were performed with the FREEDOM EVO automated liquid handler (Tecan US). NADPH, a required cofactor for CYP450 metabolism, was provided by the NADPH Regenerating System, Solutions A (BD Biosciences) and B (BD Biosciences). Compound stock solutions were initially prepared in 100% DMSO and subsequently diluted in acetonitrile for the assay. The pH of the reactions was kept at ˜7.4 with potassium phosphate buffer (BD Biosciences). The reactions were started after adding NADPH to the reaction plate containing microsomes and compounds and time 0 minutes aliquots were promptly collected and mixed with ice cold acetonitrile (spiked with internal standards) to quench the reactions. The remainder of the reaction volume was incubated at 37° C. with shaking. […] The amount of compound in the supernatant was determined by LC/MS/MS (Applied Biosystems, Sciex API4000 Q-TRAP) and the percent of parent compound remaining after 60 minutes was calculated by the following formula: % parent compound remaining=[(concentration at 60 minutes/concentration at 0 minutes)×100]. […] Results reported are the mean of each reaction triplicate, normalized to the internal standard, and expressed as a percent compound remaining after the incubation time. […]

The nature of data set [3]: Plasma protein binding (RED), human. Format: in vitro ADME. The method, then: TEFLON Base Plate wells were rinsed with 20% ethanol for 10 minutes. Ethanol was then removed and wells were rinsed with ultrapure water and allowed to dry. RED (rapid equilibrium dialysis) inserts from Thermo Scientific (Pierce) were placed (open end up) into the wells of the base plate. All liquid was dispensed and transfer steps were performed with the FREEDOM EVO automated liquid handler (Tecan US). The sample chambers (red ring) contained 300 μl of a mixture of plasma and compound, and the buffer chambers received 500 μl of dialysis buffer (1×PBS, pH7.4). Duplicate inserts were made for each concentration tested. The base plate was covered with sealing tape and incubated at 37° C. on an orbital shaker at 350 rpm for 4 hours. After the incubation time, equal volumes from both chambers were removed and transferred to a 96 well plate containing either plasma or buffer. […] The amount of compound in the supernatant was determined by LC/MS/MS (Applied Biosystems, Sciex API4000 Q-Trap). The percent of free and bound compounds were calculated with the following formula: % of bound parent compound=[(amount of compound in donor-receiver/amount of compound in donor)×100]. Results reported are the mean of each reaction duplicate, normalized to the internal standard, and expressed as a percent compound bound after the incubation time. […]

The next data set is described as follows: in vitro. Format: cell-based. The note with it: human. As for the experimental part:
Immortalized human hepatocytes, Fa2N-4 cells (XenoTech) were seeded at ˜50,000 cells/well, and incubated with a range of concentrations (0.01-50 μM) of compound 17, in duplicate, for 24 hours at 37° C., 5% CO2. Cell viability was determined by cellular ATP levels using the Luminescence ATP Detection Assay System (ATPLITE 1 step, Perkin Elmer) and the Infinite M200 plate reader (Tecan). Camptothecin (highly toxic) and Terfenadine (highly non-toxic) were used as standards. Final DMSO concentration was 0.5%.

Consider `Cc1ccc2nc(-c3ccc4nc(-c5ccc(NC(=O)c6cccc(Cl)c6)cc5)sc4c3)sc2c1S(=O)(=O)O` [Compound 17, 2′-(4-(3-chlorobenzamido)phenyl)-6-methyl-[2,6′-bibenzo[d]thiazole]-7-sulfonic acid], for which the Papp at 30 min, 100 μM in data set [1] (PAMPA, donor pH 6.2, read-out: PAMPA Pe) was found to be 0.22 ×10⁻⁶ cm/s. Also, the “PAMPA Pe” value was 0 (5.0) ×10^−6 cm/s in data set [1] (donor pH 5.0) and 0 (7.4) ×10^−6 cm/s in data set [1] (donor pH 7.4). In the data set “Plasma stability, human”, the “Plasma Stability Human” value is listed as 96.6%. In addition, in data set [2], the “Hepatic Microsome Stability Mouse” value worked out at 83.11%. Further, in data set [3] (pH 7.4, 1 μM, read-out: Plasma Protein Binding (% Bound) Human (converted)), the fraction unbound at 4 h, 1 μM was 0.02. Also, the fraction unbound at 4 h, 10 μM in data set [3] (pH 7.4, 10 μM, read-out: Plasma Protein Binding (% Bound) Human) came out at 0.01. Besides, in the data set “in vitro”, the CC50 at 24 h is above 50 µM.

What is called CC50 is the concentration that lowers cell viability or growth by half. A high value points to better tolerance by the cells.
